The values that follow come from ChEMBL document CHEMBL1909528, “Synthesis and 2D QSAR of O-sulphonated β-aminols derivatives as novel antifungal and antibacterial agents” (Bioorg Med Chem Lett, 2011).

One may read the MIC as the smallest concentration in the dilution series that meets the test's criterion for growth inhibition. Low readings indicate a more susceptible organism, high ones a less susceptible organism.

One test relates to Candida albicans. The experiment in a line: Antifungal activity against Candida albicans by broth microdilution method. In kind it is functional, organism-based. (In general: Broth dilution looks for growth in wells or tubes with falling amounts of substance.)
The test system of a further test is Staphylococcus aureus. The test is described as follows: Antibacterial activity against Staphylococcus aureus ATCC 25923 by broth microdilution method. In kind it is functional, organism-based.
The subject of a further test is Aspergillus fumigatus. The experiment in a line: Antifungal activity against Aspergillus fumigatus by broth microdilution method. Format: functional.
The test system of another test is Candida parapsilosis. The test is described as follows: Antifungal activity against Candida parapsilosis ATCC 22019 by broth microdilution method. To be noted: Lodderomyces parapsilosis. In kind it is functional.
In a further test the test system is Cryptococcus neoformans. The test is described as follows: Antifungal activity against Cryptococcus neoformans by broth microdilution method. In kind it is functional.
For test [1], the system named is Trichophyton mentagrophytes. The experiment in a line: Antifungal activity against Trichophyton mentagrophytes by broth microdilution method. In kind it is functional, organism-based.
In a further test the test system is Sporothrix schenckii. The test is described as follows: Antifungal activity against Sporothrix schenckii by broth microdilution method. In kind it is functional, organism-based.
The subject of a further test is Escherichia coli. The experiment in a line: Antibacterial activity against Escherichia coli ATCC 9637 by broth microdilution method. Format: functional, organism-based.

For the compound `O=[N+]([O-])c1cccc(S(=O)(=O)OC(CNCc2ccccc2)c2ccccc2)c1` (centres undefined), the MIC in the test on Candida albicans was < 50 µM; in the test with Staphylococcus aureus it was < 50 µM; against Aspergillus fumigatus, > 50 µM; with Candida parapsilosis, > 50 µM; in the test with Cryptococcus neoformans, > 50 µM. Also, the IC50 was 30.8 µM with Candida albicans (read-out: IC50), 30.8 µM in the test with Candida albicans (read-out: pIC50 (converted)), 0.842 µM in the test on Staphylococcus aureus (read-out: IC50) and 1.19 µM in the test on Staphylococcus aureus (read-out: pIC50 (converted)).

Consider `O=S(=O)(OC(CNCc1ccccc1)c1ccccc1)c1c(Cl)cccc1Cl` (centres undefined), for which the minimum inhibitory concentration (MIC) with Candida albicans is < 50 µM; in the test on Staphylococcus aureus it was < 50 µM; against Aspergillus fumigatus, > 50 µM; in the test with Candida parapsilosis, > 50 µM; with Cryptococcus neoformans it was > 50 µM; in test [1], < 50 µM. For the same compound, the MIC with Sporothrix schenckii was < 50 µM. Moreover, the IC50 in the test with Candida albicans (read-out: IC50) was 18 µM; with Candida albicans (read-out: pIC50 (converted)), 18 µM; in the test on Staphylococcus aureus (read-out: IC50) it was 11.6 µM; in the test on Staphylococcus aureus (read-out: pIC50 (converted)), 11.6 µM; in test [1] (read-out: IC50), 44.7 µM; in test [1] (read-out: pIC50 (converted)) it was 44.8 µM. Moreover, the IC50 in the test with Sporothrix schenckii (read-out: IC50) and in the test on Sporothrix schenckii (read-out: pIC50 (converted)) was 12 µM each time.

`O=S(=O)(OC(CNCc1ccccc1)c1ccccc1)c1ccc(F)cc1` (centres undefined): the MIC against Candida albicans is < 50 µM; against Staphylococcus aureus, < 50 µM; against Aspergillus fumigatus it was > 50 µM; with Candida parapsilosis, > 50 µM; against Cryptococcus neoformans it was > 50 µM; in test [1] it was < 50 µM. Also, the IC50 was 41.9 µM in the test on Candida albicans (read-out: IC50); 41.9 µM with Candida albicans (read-out: pIC50 (converted)); 22.6 µM in the test on Staphylococcus aureus (read-out: IC50); 22.6 µM in the test on Staphylococcus aureus (read-out: pIC50 (converted)); 10.2 µM in test [1] (read-out: IC50); 10.2 µM in test [1] (read-out: pIC50 (converted)).

Take `CC(C)(C)OC(=O)N(Cc1ccccc1)CC(OS(=O)(=O)c1c(Cl)cccc1Cl)c1ccccc1` (centres undefined): the MIC is > 50 µM in the test with Aspergillus fumigatus; > 50 µM with Candida parapsilosis; > 50 µM with Cryptococcus neoformans; < 50 µM against Sporothrix schenckii; < 50 µM in the test on Escherichia coli. The IC50 is 11.4 µM in the test on Sporothrix schenckii (read-out: IC50), 11.4 µM in the test with Sporothrix schenckii (read-out: pIC50 (converted)), 3.13 µM in the test on Escherichia coli (read-out: IC50) and 3.13 µM with Escherichia coli (read-out: pIC50 (converted)).

`CC(C)(C)OC(=O)N(Cc1ccccc1)CC(OS(=O)(=O)c1ccc(F)cc1)c1ccccc1` (centres undefined): the minimum inhibitory concentration (MIC) is < 50 µM against Candida albicans; > 50 µM against Aspergillus fumigatus; > 50 µM in the test on Candida parapsilosis; > 50 µM against Cryptococcus neoformans; < 50 µM in test [1]; < 50 µM with Sporothrix schenckii. Besides, the MIC in the test with Escherichia coli is < 50 µM. Moreover, the IC50 is 1.52 µM with Candida albicans (read-out: IC50); 1.52 µM in the test on Candida albicans (read-out: pIC50 (converted)); 0.46 µM in test [1] (read-out: IC50); 8.66 µM with Sporothrix schenckii (read-out: IC50); 8.66 µM with Sporothrix schenckii (read-out: pIC50 (converted)); 0.83 µM in the test with Escherichia coli (read-out: IC50). In addition, in the test on Escherichia coli (read-out: pIC50 (converted)), the IC50 was 1.2 µM.

`CC(C)(C)OC(=O)N(Cc1ccccc1)CC(OS(=O)(=O)c1ccc([N+](=O)[O-])cc1)c1ccccc1` (centres undefined): the MIC against Aspergillus fumigatus was > 50 µM; in the test with Candida parapsilosis, > 50 µM; against Cryptococcus neoformans, > 50 µM; in test [1], < 50 µM; against Escherichia coli it was < 50 µM. In addition, the IC50 is 5.73 µM in test [1] (read-out: IC50), 5.73 µM in test [1] (read-out: pIC50 (converted)), 9.02 µM with Escherichia coli (read-out: IC50) and 9.02 µM in the test with Escherichia coli (read-out: pIC50 (converted)).

On to `CC(C)(C)OC(=O)N(Cc1ccccc1)CC(OS(=O)(=O)c1ccc(C#N)cc1)c1ccccc1` (centres undefined), for which the MIC was < 50 µM with Candida albicans; > 50 µM against Aspergillus fumigatus; > 50 µM against Candida parapsilosis; > 50 µM in the test with Cryptococcus neoformans; < 50 µM in test [1]; < 50 µM in the test on Sporothrix schenckii. Also, the minimum inhibitory concentration (MIC) against Escherichia coli is < 50 µM. Also, the IC50 in the test with Candida albicans (read-out: IC50) is 8.59 µM; in the test with Candida albicans (read-out: pIC50 (converted)), 8.59 µM; in test [1] (read-out: IC50), 9.48 µM; in test [1] (read-out: pIC50 (converted)), 9.48 µM; in the test on Sporothrix schenckii (read-out: IC50), 32.7 µM; in the test on Sporothrix schenckii (read-out: pIC50 (converted)) it was 32.7 µM. For the same compound, the IC50 in the test on Escherichia coli (read-out: IC50) and in the test with Escherichia coli (read-out: pIC50 (converted)) was 18.5 µM in each case.

For `CC(C)(C)OC(=O)N(Cc1ccccc1)CC(OS(=O)(=O)c1cccc2ccccc12)c1ccccc1` (centres undefined), the MIC against Aspergillus fumigatus is > 50 µM; with Candida parapsilosis it was > 50 µM; in the test with Cryptococcus neoformans, > 50 µM; in test [1] it was < 50 µM; against Escherichia coli, < 50 µM. The IC50 was 5.48 µM in test [1] (read-out: IC50), 5.48 µM in test [1] (read-out: pIC50 (converted)), 1.26 µM in the test with Escherichia coli (read-out: IC50) and 1.26 µM in the test on Escherichia coli (read-out: pIC50 (converted)).

On to `CC(C)(C)OC(=O)N(Cc1ccccc1)CC(OS(=O)(=O)c1ccc2ccccc2c1)c1ccccc1` (centres undefined), for which the minimal inhibitory concentration (MIC) was > 50 µM against Aspergillus fumigatus; > 50 µM in the test on Candida parapsilosis; > 50 µM against Cryptococcus neoformans; < 50 µM in test [1]; < 50 µM in the test on Escherichia coli. Moreover, the IC50 in test [1] (read-out: IC50) was 2.12 µM; in test [1] (read-out: pIC50 (converted)), 2.12 µM; with Escherichia coli (read-out: IC50), 3.54 µM; with Escherichia coli (read-out: pIC50 (converted)) it was 3.54 µM.

Regarding `Cc1ccc(S(=O)(=O)OC(CN(Cc2ccccc2)C(=O)OC(C)(C)C)c2ccccc2)cc1` (centres undefined), the MIC was < 50 µM with Candida albicans; > 50 µM against Aspergillus fumigatus; > 50 µM against Candida parapsilosis; > 50 µM in the test with Cryptococcus neoformans; < 50 µM in test [1]; < 50 µM in the test with Sporothrix schenckii. The minimal inhibitory concentration (MIC) against Escherichia coli was < 50 µM. Further, the IC50 in the test with Candida albicans (read-out: IC50) is 4.07 µM; with Candida albicans (read-out: pIC50 (converted)) it was 4.07 µM; in test [1] (read-out: IC50), 11.7 µM; in test [1] (read-out: pIC50 (converted)), 11.7 µM; in the test on Sporothrix schenckii (read-out: IC50), 32.7 µM; with Sporothrix schenckii (read-out: pIC50 (converted)), 32.7 µM. Also, the IC50 in the test with Escherichia coli (read-out: IC50) and in the test on Escherichia coli (read-out: pIC50 (converted)) was 7.5 µM in each case.

Consider `CC(C)(C)OC(=O)N(Cc1ccccc1)CC(OS(=O)(=O)c1ccc([N+](=O)[O-])cc1[N+](=O)[O-])c1ccccc1` (centres undefined), for which the MIC is < 50 µM against Candida albicans; > 50 µM in the test on Aspergillus fumigatus; > 50 µM against Candida parapsilosis; > 50 µM against Cryptococcus neoformans; < 50 µM against Escherichia coli. Also, the IC50 is 0.54 µM in the test on Candida albicans (read-out: IC50), 23.3 µM in the test with Escherichia coli (read-out: IC50) and 23.3 µM in the test with Escherichia coli (read-out: pIC50 (converted)).

With `CC(C)(C)OC(=O)N(Cc1ccc(F)cc1)CC(OS(=O)(=O)c1cccc(Cl)c1Cl)c1ccccc1` (centres undefined), the MIC with Staphylococcus aureus is < 50 µM; against Aspergillus fumigatus, > 50 µM; against Candida parapsilosis, > 50 µM; with Cryptococcus neoformans it was > 50 µM; in test [1] it was < 50 µM; with Sporothrix schenckii, < 50 µM. Besides, the IC50 is 14.7 µM in the test with Staphylococcus aureus (read-out: IC50); 14.7 µM in the test with Staphylococcus aureus (read-out: pIC50 (converted)); 0.53 µM in test [1] (read-out: IC50); 7.46 µM in the test on Sporothrix schenckii (read-out: IC50); 7.46 µM in the test on Sporothrix schenckii (read-out: pIC50 (converted)).

With `CC(C)(C)OC(=O)N(Cc1ccc(Cl)c(Cl)c1)CC(OS(=O)(=O)c1ccc(F)cc1)c1ccccc1` (centres undefined), the MIC in the test with Staphylococcus aureus is < 50 µM; against Aspergillus fumigatus, > 50 µM; in the test on Candida parapsilosis, > 50 µM; against Cryptococcus neoformans it was > 50 µM; against Sporothrix schenckii it was < 50 µM. Besides, the IC50 was 15.3 µM in the test on Staphylococcus aureus (read-out: IC50), 15.3 µM in the test on Staphylococcus aureus (read-out: pIC50 (converted)), 43.3 µM with Sporothrix schenckii (read-out: IC50) and 43.3 µM in the test on Sporothrix schenckii (read-out: pIC50 (converted)).
